Data published in PubChem BioAssay (NCI).
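Dose response: 5 concentrations. Exposure: 48 h. Format: 96-well plates. Endpoint: linear interpolation; highest concentration if not reached. Definition used: TGI = concentration required for complete inhibition of growth.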

What was measured:
Test in all cases: DTP human tumour cell line panel, 48 h
A549 NSCLC = tested on: A549 NSCLC
TK-10 renal = tested on: TK-10 renal
NCI-H522 lung = tested on: NCI-H522 lung
HL-60(TB) leukemia = tested on: HL-60(TB) leukemia
SN12C renal = tested on: SN12C renal
HOP-62 NSCLC = tested on: HOP-62 NSCLC
SR leukemia = tested on: SR leukemia
SK-OV-3 ovarian = tested on: SK-OV-3 ovarian
KM12 colon = tested on: KM12 colon
SF-539 CNS = tested on: SF-539 CNS
MOLT-4 leukemia = tested on: MOLT-4 leukemia
A498 renal = tested on: A498 renal
LOX IMVI melanoma = tested on: LOX IMVI melanoma
M14 melanoma = tested on: M14 melanoma
OVCAR-8 ovarian = tested on: OVCAR-8 ovarian
NCI-H460 lung = tested on: NCI-H460 lung
U251 CNS = tested on: U251 CNS
SW-620 colon = tested on: SW-620 colon
HCT-15 colon = tested on: HCT-15 colon
NCI/ADR-RES ovarian = tested on: NCI/ADR-RES ovarian
HCT-116 colon = tested on: HCT-116 colon
SF-295 CNS = tested on: SF-295 CNS
SF-268 CNS = tested on: SF-268 CNS
UO-31 renal = tested on: UO-31 renal
BT-549 breast = tested on: BT-549 breast
HS 578T breast = tested on: HS 578T breast
SK-MEL-5 melanoma = tested on: SK-MEL-5 melanoma
OVCAR-4 ovarian = tested on: OVCAR-4 ovarian
SK-MEL-28 melanoma = tested on: SK-MEL-28 melanoma
CAKI-1 renal = tested on: CAKI-1 renal
ACHN renal = tested on: ACHN renal
OVCAR-5 ovarian = tested on: OVCAR-5 ovarian
HT29 colon = tested on: HT29 colon
UACC-62 melanoma = tested on: UACC-62 melanoma
IGROV1 ovarian = tested on: IGROV1 ovarian
SK-MEL-2 melanoma = tested on: SK-MEL-2 melanoma
T-47D breast = tested on: T-47D breast
K-562 leukemia = tested on: K-562 leukemia
DU-145 prostate = tested on: DU-145 prostate
NCI-H23 lung = tested on: NCI-H23 lung
HCC-2998 colon = tested on: HCC-2998 colon
MALME-3M melanoma = tested on: MALME-3M melanoma
PC-3 prostate = tested on: PC-3 prostate
786-0 renal = tested on: 786-0 renal
COLO 205 colon = tested on: COLO 205 colon
NCI-H226 lung = tested on: NCI-H226 lung
MDA-N = tested on: MDA-N
MCF7 breast = tested on: MCF7 breast
OVCAR-3 ovarian = tested on: OVCAR-3 ovarian
EKVX NSCLC = tested on: EKVX NSCLC
MDA-MB-435 = tested on: MDA-MB-435
HOP-92 NSCLC = tested on: HOP-92 NSCLC
SNB-75 CNS = tested on: SNB-75 CNS
RXF 393 renal = tested on: RXF 393 renal
UACC-257 melanoma = tested on: UACC-257 melanoma
SNB-19 CNS = tested on: SNB-19 CNS
MDA-MB-231 breast = tested on: MDA-MB-231 breast
RPMI-8226 leukemia = tested on: RPMI-8226 leukemia

Q: With `Cc1c2cccc(Sc3ccccc3)c2c2c3c(cccc13)[S+](c1ccccc1)C2` (stereo not drawn) as the molecule, how does the TGI (A549 NSCLC) read?
A: 14.7 µM

Q: And the TGI (TK-10 renal)?
A: 9.55 µM

Q: What about the TGI (NCI-H522 lung) of the same molecule?
A: 4.51 µM

Q: And the TGI (HL-60(TB) leukemia)?
A: 2.82 µM

Q: And the TGI (SN12C renal)?
A: 11.5 µM

Q: And the TGI (HOP-62 NSCLC)?
A: 7.35 µM

Q: What about the TGI (SR leukemia) of the same molecule?
A: 4.91 µM

Q: What about the TGI (SK-OV-3 ovarian) of the same molecule?
A: 6.58 µM

Q: What about the TGI (KM12 colon) of the same molecule?
A: 2.85 µM

Q: And the TGI (SF-539 CNS)?
A: 7.91 µM

Q: And the TGI (MOLT-4 leukemia)?
A: 4.55 µM

Q: And the TGI (A498 renal)?
A: 8.32 µM

Q: And the TGI (LOX IMVI melanoma)?
A: 3.52 µM

Q: What about the TGI (M14 melanoma) of the same molecule?
A: 6.78 µM

Q: What about the TGI (OVCAR-8 ovarian) of the same molecule?
A: 12.4 µM

Q: What about the TGI (NCI-H460 lung) of the same molecule?
A: 4.1 µM

Q: What about the TGI (U251 CNS) of the same molecule?
A: 9.41 µM

Q: What about the TGI (SW-620 colon) of the same molecule?
A: 16.7 µM

Q: And the TGI (HCT-15 colon)?
A: 27.8 µM

Q: What about the TGI (NCI/ADR-RES ovarian) of the same molecule?
A: > 100 µM

Q: What about the TGI (HCT-116 colon) of the same molecule?
A: 9.59 µM

Q: What about the TGI (SF-295 CNS) of the same molecule?
A: 6.33 µM

Q: And the TGI (SF-268 CNS)?
A: 11.8 µM

Q: And the TGI (UO-31 renal)?
A: 8.28 µM

Q: And the TGI (BT-549 breast)?
A: 9.87 µM

Q: And the TGI (HS 578T breast)?
A: 13.9 µM

Q: And the TGI (SK-MEL-5 melanoma)?
A: 2.1 µM

Q: What about the TGI (OVCAR-4 ovarian) of the same molecule?
A: 11.7 µM

Q: What about the TGI (SK-MEL-28 melanoma) of the same molecule?
A: 6.84 µM

Q: What about the TGI (CAKI-1 renal) of the same molecule?
A: 11.4 µM

Q: And the TGI (ACHN renal)?
A: 12.7 µM

Q: What about the TGI (OVCAR-5 ovarian) of the same molecule?
A: 12.1 µM

Q: And the TGI (HT29 colon)?
A: 7.38 µM

Q: And the TGI (UACC-62 melanoma)?
A: 3.67 µM

Q: What about the TGI (IGROV1 ovarian) of the same molecule?
A: 9.12 µM

Q: And the TGI (SK-MEL-2 melanoma)?
A: 3.71 µM

Q: What about the TGI (T-47D breast) of the same molecule?
A: 8.24 µM

Q: And the TGI (K-562 leukemia)?
A: 11.2 µM

Q: And the TGI (DU-145 prostate)?
A: 15.3 µM

Q: And the TGI (NCI-H23 lung)?
A: 9.82 µM

Q: What about the TGI (HCC-2998 colon) of the same molecule?
A: 4.49 µM

Q: And the TGI (MALME-3M melanoma)?
A: 4.67 µM

Q: What about the TGI (PC-3 prostate) of the same molecule?
A: 5.71 µM

Q: What about the TGI (786-0 renal) of the same molecule?
A: 13.9 µM

Q: What about the TGI (COLO 205 colon) of the same molecule?
A: 2.46 µM

Q: What about the TGI (NCI-H226 lung) of the same molecule?
A: 7.54 µM

Q: What about the TGI (MDA-N) of the same molecule?
A: 13.8 µM

Q: And the TGI (MCF7 breast)?
A: 8.93 µM

Q: What about the TGI (OVCAR-3 ovarian) of the same molecule?
A: 6.01 µM

Q: And the TGI (EKVX NSCLC)?
A: 19.5 µM

Q: What about the TGI (MDA-MB-435) of the same molecule?
A: 5.24 µM

Q: And the TGI (HOP-92 NSCLC)?
A: 6.6 µM

Q: What about the TGI (SNB-75 CNS) of the same molecule?
A: 8.14 µM

Q: What about the TGI (RXF 393 renal) of the same molecule?
A: 14.9 µM

Q: What about the TGI (UACC-257 melanoma) of the same molecule?
A: 3.57 µM

Q: What about the TGI (SNB-19 CNS) of the same molecule?
A: 11.2 µM

Q: And the TGI (MDA-MB-231 breast)?
A: 5.68 µM

Q: What about the TGI (RPMI-8226 leukemia) of the same molecule?
A: 2.85 µM
